# Assay results: patent US12295997B2, “Prostate neoantigens and their uses” (Janssen Biotech, Inc., priority 2020, dated 2025)
# Test system: CD8+ and CD4+ T cells (autologous CD3+ Pan-T cells isolated from human normal PBMCs)
# Test: Exogenous autologous normal donor restimulation assay (15-mer overlapping peptide pools on CD1c+ dendritic cells, TNFα/IFNγ flow cytometry)
# Format: cell-based
# Details: 15-mer overlapping peptide pool; for Max. Fold Change over background CD4+ TNFαINFγ double positive DP / Max. Fold Change over background CD8+ TNFαINFγ double positive DP / Max. Frequency of CD4+ TNFαINFγ DP / Max. Frequency of CD8+ TNFαINFγ DP: Table 28, additional neoantigens, highest across normal donors; for Maximum Fold Change Over Background CD4+ cells / Maximum Fold Change Over Background CD8+ cells / Maximum Frequency of TNFα/IFNγ Double Positive CD4+ T cells / Maximum Frequency of TNFα/IFNγ Double Positive CD8+ T cells: Table 25; for Maximum Fold Change Over Background CD4+ cells: TNFα+IFNγ+ CD4+ T cells; for Maximum Fold Change Over Background CD4+ cells / Maximum Fold Change Over Background CD8+ cells: highest fold change over negative control across normal donors; for Maximum Fold Change Over Background CD8+ cells: TNFα+IFNγ+ CD8+ T cells; for Maximum Frequency of TNFα/IFNγ Double Positive CD4+ T cells / Maximum Frequency of TNFα/IFNγ Double Positive CD8+ T cells: highest frequency across normal donors
# Protocol: CD1c+ Dendritic Cells (DC) isolated from human normal PBMCs were thawed using media (IMDM (Gibco) supplemented with glutamine, HEPES, 5% human serum (Sigma), and 1× Pen-Strep). DC cells were resuspended in media supplemented with IL-4 (Peprotech, 80 ng/mL) and GM-CSF (Gibco, 80 ng/mL), plated in 6 well microplates, and rested overnight at 37° C. (5% CO2). The following day, DC cells were counted and plated in a 96 well round bottom microplate at a concentration of 30,000 viable cells per well. Lyophilized peptides (15-mer overlapping peptides) were solubilized in 100% DMSO and pooled by neoantigen to between 5 mg/mL and 20 mg/mL. Neoantigen peptides pools were added to DCs for a final concentration of […] and rested for 2 hours at 37° C. (5% CO2). CEF Peptide Pool “Plus” (Cellular Technologies, Ltd.) was utilized as a positive control and DMSO at the same final concentration as the experimental peptides was utilized as a negative control. After 2 hours, DC cells were irradiated with 50 gray of ionizing radiation. Autologous CD3+ Pan-T cells isolated from human normal PBMCs were thawed using media. Following irradiation, autologous Pan-T cells were added to the irradiated DCs at 300,000 viable cells per well. Human IL-15 (Peprotech) was added to all wells at final concentration of 10 ng/mL.
# Plates were incubated at 37° C. (5% CO2) for a total of 12 days. Media was refreshed every 2-3 days with IL-15 (10 ng/mL final concentration) and IL-2 (R&D systems, 10 IU/mL final concentration). On day 11 cells were re-stimulated with identical experimental peptide pools or controls, at same concentration as peptide stimulation on Day 1. Protein Inhibitor Cocktail (eBioscience) was added to every well and plate was incubated overnight at 37° C. (5% CO2).
# On day 12, cells were stained for intracellular flow cytometry analysis. The cells were washed with PBS and stained with Live/Dead Fixable Aqua Dead Cell stain (Thermo-Fisher). Following the live/dead stain, cells were blocked using Biotin-Free Fc Receptor Blocker (Accurate Chemical & Scientific Corp). Extracellular cellular flow panel (1 μL/antibody per well in 50 μL) consisted of CD3 PerCP-Cy5.5 (Biolegend), CD4 BV421 (Biolegend), and CD8 APC-Cy7 (Biolegend). After extracellular staining, cells were fixed using Foxp3/fTranscription Factor Staining Buffer Set (eBioscience) and stained for intracellular proteins (1:50 dilution) using TNFα FITC (R&D Systems) and IFNγ BV785 (Biolegend). Cells were washed and resuspended in stain buffer and analyzed using a BD Celesta flow cytometer.
# Flow cytometry cell staining analysis was completed using FlowJo v10. Cells were gated on live, singlet, CD3+ cells. The CD8+ and CD4+ T cells were analyzed for TNFα/IFNγ expression and the frequency of double positive TNFα/IFNγ CD8+ and the frequency of double positive TNFα/IFNγ CD4+ T cells were recorded. Responses were assessed to be positive when the frequency of double positive TNFα/IFNγ CD8+ or TNFα/IFNγ CD4+ T cells due to stimulation with an experimental peptide pool was increased greater than or equal to 3-fold over the DMSO only negative control for that donor and at least 0.01%.
# (§1) Overlapping 15-mer peptides were designed to span each neoantigen incorporated into NeoGAd20 and NeoMVA to assess their ability to activate T cells using the exogenous autologous normal donor restimulation assay described in Example 1 as pools using TNFα and IFNγ production by CD8^+ and CD4^+ T cells as a readout.
# as §1, with “Immunogenicity of various additional identified neoantigens was assessed. Overlapping” for “Overlapping”, “similarly to what was done in Example 11” for “incorporated into NeoGAd20 and NeoMVA”
Substance,Max. Fold Change over background CD4+ TNFαINFγ double positive DP,Max. Fold Change over background CD8+ TNFαINFγ double positive DP,Max. Frequency of CD4+ TNFαINFγ DP,Max. Frequency of CD8+ TNFαINFγ DP,Maximum Fold Change Over Background CD4+ cells,Maximum Fold Change Over Background CD8+ cells,Maximum Frequency of TNFα/IFNγ Double Positive CD4+ T cells,Maximum Frequency of TNFα/IFNγ Double Positive CD8+ T cells
MS2 (TDIVKQSV; listed as Homo sapiens),15.12,36.92,0.1,0.48,–,–,–,–
"IIDSDKIMAVCMGCLLTRHVQCQAMEMQQ (listed as Homo sapiens) [AS54, ABCC4 alternative splicing]",17.87,88.15,0.18,8.33,–,–,–,–
"AGAGTISEGSVLHGQRLECDARRFFGCGTTILAEWEHH (listed as Homo sapiens) [AS59, ACSL3 alternative splicing]",59.58,4.22,0.3,0.08,–,–,–,–
"LTFLDFIQVTLRVMSGSQMENGSSYFFKPFSWGLGVGLSAWLCVMLT (listed as Homo sapiens) [AS1, ABCC4 alternative splicing]",3.57,8.15,0.02,0.11,–,–,–,–
"ENSGNASRWLHVPSSSDDWLGWKKSSAITSNS (listed as Homo sapiens) [AS50, LRIF1 alternative splicing]",17.22,1.6,0.07,0.12,–,–,–,–
MS11 (GSLHFHEVLK; listed as Homo sapiens),3.4,3.81,0.13,0.12,–,–,–,–
"ENASLVFTGSNSPIPACELSSHPAHGISPWIPSPGNEHFHGIKKQVKAIKVE (listed as Homo sapiens) [AS48, SYT17 alternative splicing]",13.45,9.21,0.13,0.29,–,–,–,–
"RLTQRLVQGWTPMENRWCGRRAGGQPASSSTRWTTCRAACLLTKWTAGRSQTSIG (listed as Homo sapiens) [AS49, PDF alternative splicing]",184.87,8.67,0.14,0.65,–,–,–,–
"HVVGYGHLDTSGSSSSSSWP (listed as Homo sapiens) [FUS15, D2HGDH->GAL3ST2 gene fusion]",–,–,–,–,2.79,1.75,0.039,0.028
"LVLGVLSGHSGSRL (listed as Homo sapiens) [AS8, CACNA1D alternative splicing]",–,–,–,–,4.08,54.55,0.049,0.600
"KENDVREVCDVYLQMQIFFHFKFRSYFH (listed as Homo sapiens) [AS10, CHRNA5 alternative splicing]",3.97,4.33,0.23,0.08,–,–,–,–
MS7 (KKDLELIL; listed as Homo sapiens),10.52,6.67,0.09,0.12,–,–,–,–
"VLRFLDLKVRYLHS (listed as Homo sapiens) [AS15, LRRC45 alternative splicing]",–,–,–,–,9.17,4.36,0.110,0.061
"TEYNQKLQVNQFSESK (listed as Homo sapiens) [FUS2, ARHGEF38->ARHGEF38-IT1 gene fusion]",–,–,–,–,2.14,3.13,0.03,0.05
"EAFQRAAGEGGPGRGGARRGARVLQSPFCRAGAGEWLGHQSLR (listed as Homo sapiens) [AS41, RHPN1 alternative splicing]",–,–,–,–,2.20,190.60,0.022,9.530
"WCPLDLRLGSTGCLTCRHHQTSHE (listed as Homo sapiens) [AS4, NCAPD3 alternative splicing]",37.38,5.4,1.43,0.17,–,–,–,–
"QWQHYHRSGEAAGTPLWRPTRN (listed as Homo sapiens) [AS19, NWD1 alternative splicing]",–,–,–,–,2.59,5.87,0.1,0.63
MS10 (TVRAILL; listed as Homo sapiens),74.17,3.42,0.28,0.13,–,–,–,–
TMPAILKLQKNCLLSL (listed as Homo sapiens) [MS8],–,–,–,–,15.60,4.44,0.40,0.14
"CEERGAAGSLISCE (listed as Homo sapiens) [FUS6, TMPRSS2->ERG gene fusion]",–,–,–,–,2.27,3.50,0.016,0.056
"PEPRRLSPGEPRGRPRKGWGIWGLCGARVGPKAWR (listed as Homo sapiens) [AS42, SLC39A4 alternative splicing]",24.58,4.65,0.59,0.69,–,–,–,–
"DGHSYTSKVNCLLLQDGFHGCVSITGAAGRRNLSIFLFLMLCKLEFHA (listed as Homo sapiens) [AS55.1, SPOCK1 alternative splicing]",20.66,25.26,0.08,1.47,–,–,–,–
"NSKMALNSEALSVVSE (listed as Homo sapiens) [FUS5, TMPRSS2->ERG gene fusion]",–,–,–,–,3.43,32.50,0.048,0.390
